Laboratory results: patent US9150508B2, “Sulfonamide compounds and their use in the modulation retinoid-related orphan receptor” (Glaxo Group Limited, priority 2011, dated 2015)

How the values were obtained:
[1] = tested on: IL-17A secreted from antiCD3/CD28 stimulated Peripheral Blood Mononuclear cells (PBMC); assay: Peripheral Blood Mononucleocyte Cell Assay (PBMC Assay-IL-17); format: cell-based; conditions: inhibition of IL-17A release, CD3/CD28 bead stimulated human PBMC, 48 hours; read-out: mean pIC50 (converted)
Text: Peripheral Blood Mononucleocyte Cell Assay (PBMC Assay-IL-17)
RORs (Retinoic Acid Related Orphan Receptors) are members of the class 1 nuclear receptor family. RORs regulate gene transcription by binding to specific DNA response element (RORE) as a monomer and have critical roles of in development, immunity, circadian rhythm, and cellular metabolism (recently reviewed by A Jetten, Nuclear Receptor Signaling, 2009, 7, 1-32) One member of this nuclear receptor family, RORγt, has been identified as a regulator of differentiation and development of IL-17-expressing human and mouse CD4+ T cells, so called Th17 cells which play a role in both host defence and inflammatory disorders. RORγt is also required for transcription of the genes encoding IL-17A and IL-17F in iNKT, NKT (Immunol 2009, 2(5), 383-392, J. Immunol, 2008, 180, 51(67), 5171-5171), γδTcells (J. Resp and Crit. Care Med 2010, 182(4), 464-476), CD8^+ Tcell (J Leukocyte Biol, 2007, 82(2), 354-360) and finally CD4-CD8-TCRαβ^+ T cells (J. Immunol. 2008, 181 8761-8766). Additional immune cells such as eosinophils, neutrophils and macrophages can also be source of IL17A in some allergic inflammation related to asthma (J Allergy Clin Immunol 2001, 108, 430-438; J. Immunol, 2008, 181, 6117-6124; Immunity, 2004, 21, 467-476), however, the link with RORγt has not yet been confirmed in the literature.
This assay is designed to measure levels of IL-17A secreted from antiCD3/CD28 stimulated frozen Peripheral Blood Mononuclear cells (PBMC) isolated from human blood with the aim of identifying inhibitors of IL-17A release.
• 1. Ensure no external endotoxin is present in media and reagents used in the assay. • 2. The compounds for screening are dispensed into a master plate at 10 mM top concentration which are serially diluted 1:3 across 11 points in DMSO, then 500 nl is transferred into a 384-well flat-bottomed Greiner plate to which 50 ul of cell suspension is added: for the single shot screening the highest concentration of compound is 10^−5M; for 11 point full curve dose response studies the highest concentration is […]. • Controls: • As a low control, DMSO (as supplied, for example, by VWR) (final concentration 1%) in column 6 (16 points). • As a high control, 5-(4-fluorophenyl)-2-ureidothiophene-3-carboxamide (obtainable from, for example, Sigma) at a final concentration of 10^−4 M in DMSO should be used in column 18 (16 points). • If the compounds dispensed earlier than the day of the assay, they should be kept at −20° C.
Protocol Step 2: Day 1: Thawing and Handing of PBMC • 1. Thaw PBMC in the vial using water bath (37° C.). […] Transfer the contents of the vial into 50 mL Falcon tube. • 3. Add 10 mL of Assay Media drop by drop to decrease the concentration of DMSO (as supplied, for example, by VWR) in the freezing media gradually. • 4. Spin down the cells in a centrifuge (1000 rpm-5 mins). • 5. Decant the supernatant. • 6. Re-suspend the cells in 10 mL of Assay Media. • 7. Transfer of 0.1 mL of suspension into Cedex counting tube. • 8. Add 0.9 mL of media to achieve volume of the suspension for counting up to 1 mL. Count the cells on Cedex using 1:10 dilution factor settings. • 9. Make the cell suspension at the concentration 8×10^5 cells/mL. to give a final number of 40,000 cells/well. Protocol Step 3: Day 1: Stimulation of PBMC with CD3/CD28 beads • 1. Add well mixed CD3/CD28 Dynabeads (as supplied, for example, by Dynal) to achieve ratio bead:cell=2:1 (i.e a dilution of 1 in 20). Mix thoroughly. • 2. Dispense the suspension into the 384 Assay Plates using Multidrop (50 ul per well). • If the volume of cell suspension is large, mix the suspension after dispensing into every other plate. • 3. Cover the plates with the lids and place them to the humidified incubator (37° C., 5% CO2) for 48 hours. Protocol Step 4: Day 2: MSD plates preparation • 1. […]

[2] = target: T1, Human RORγ Ligand Binding Domain (RORγ-LBD) (Homo sapiens, UniProt P51449); assay: Dual Fluorescence Energy Transfer (FRET) assay: RORγ-LBD / SRC1(2) co-activator peptide interaction; format: biochemical; conditions: RORγ-LBD/SRC1(2) peptide interaction, read-out: mean pIC50 (converted)
T1 construct: His6 plus thrombin site) (N); made in house; host or cells: E. coli BL21(DE3), modified pET21a
T1 sequence (P51449 263-518): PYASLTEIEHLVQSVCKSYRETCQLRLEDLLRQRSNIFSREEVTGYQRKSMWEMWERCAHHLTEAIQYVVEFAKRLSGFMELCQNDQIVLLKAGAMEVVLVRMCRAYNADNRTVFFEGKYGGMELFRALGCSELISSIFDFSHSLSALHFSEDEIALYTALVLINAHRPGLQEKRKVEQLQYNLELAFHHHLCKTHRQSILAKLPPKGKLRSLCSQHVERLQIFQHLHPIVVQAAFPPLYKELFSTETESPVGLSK
Text: Dual Fluorescence Energy Transfer (FRET) Assay
This assay is based on the knowledge that nuclear receptors interact with cofactors (transcription factors) in a ligand dependent manner. RORγ is a typical nuclear receptor in that it has an AF2 domain in the ligand binding domain (LBD) which interacts with co-activators. The sites of interaction have been mapped to the LXXLL (SEQ ID NO:1) motifs in the co-activator SRC1(2) sequences. Short peptide sequences containing the LXXLL (SEQ ID NO:1) motif mimic the behavior of full-length co-activator.
This assay measures ligand-mediated interaction of the co-activator peptide with the purified bacterial-expressed RORγ ligand binding domain (RORγ-LBD) to indirectly assess ligand binding. RORγ has a basal level of interaction with the co-activator SRC1(2) in the absence of ligand, Thus, it is possible to find ligands that inhibit or enhance the RORγ/SRC1(2) interaction.
Human RORγ Ligand Binding Domain (RORγ-LBD) was expressed in E. coli strain BL21(DE3) as an amino-terminal polyhistidine tagged fusion protein. DNA encoding this recombinant protein was sub-cloned into a modified pET21a expression vector (Novagen). A modified polyhistidine tag (MKKHHHHHHLVPRGS) (SEQ ID NO:2)was fused in frame to residues 263-518 of the human RORγ sequence.
Approximately 50 g E. coli cell pellet was resuspended in 300 mL of lysis buffer (30 mM imidazole pH 7.0 and 150 mM NaCl). Cells were lysed by sonication and cell debris was removed by centrifugation for 30 minutes at 20,000 g at 4° C. The cleared supernatant was filtered through a 0.45 uM cellulose acetate membrane filter. The clarified lysate was loaded onto a column (XK-26) packed with ProBond Nickel Chelating resin (InVitrogen), pre-equilibrated with 30 mM imidazole pH 7.0 and 150 mM NaCl. After washing to baseline absorbance with the equilibration buffer, the column was developed with a gradient from 30 to 500 mM imidazole pH 7.0. Column fractions containing the RORγ-LBD protein were pooled and concentrated to a volume of 5 mLs. The concentrated protein was loaded onto a Superdex 200 column pre-equilibrated with 20 mM Tris-Cl pH 7.2 and 200 mM NaCl. The fractions containing the desired RORγ-LBD protein were pooled together.
Purified RORγ-LBD was buffer exchanged by exhaustive dialysis [3 changes of at least 20 volumes (>8000×)] against PBS [100 mM NaPhosphate, pH 8 and 150 mM NaCl]. The concentration of RORγ-LBD was approximately 30 uM in PBS. Five-fold molar excess of NHS-LC-Biotin (Pierce) was added in a minimal volume of PBS. This solution was incubated with occasional gentle mixing for 60 minutes at ambient room temperature. The modified RORγ-LBD was dialyzed against 2 buffer changes—TBS pH 8.0 containing 5 mM DTT, 2 mM EDTA and 2% sucrose—each at least 20 times of the volume. The modified protein was distributed into aliquots, frozen on dry ice and stored at −80° C. The biotinylated RORγ-LBD was subjected to mass spectrometric analysis to reveal the extent of modification by the biotinylation reagent. In general, approximately 95% of the protein had at least a single site of biotinylation and the overall extent of biotinylation followed a normal distribution of multiple sites ranged from one to five.
A biotinylated peptide corresponding to amino acid 676 to 700 ([…]) (SEQ ID NO:3)of the co-activator steroid receptor coactivator SRC1(2) was generated using similar method.
Biotinylated SRC1(2) solution was prepared by adding an appropriate amount of biotinylated SRC1(2) from the 100 uM stock solution to a buffer containing 10 mM of freshly added DTT from solid to give a final concentration of 40 nM. An appropriate amount of Europium labeled Streptavidin was then added to the biotinylated SRC1(2) solution in a tube to give a final concentration of 10 nM. The tube was inverted gently and incubated for 15 minutes at room temperature. […]

Structure (SMILES)	IC50 [2] [µM]	IC50 [1] [µM]
Cc1ccccc1N(CC(C)C)S(=O)(=O)c1ccc(OCc2c(C)noc2C)cc1 [Product P137]		≤ 1
Cc1cc(Br)ccc1N(CC(C)C)S(=O)(=O)c1ccc(OCc2c(C)noc2C)cc1 [Product P144]		≤ 1
Cc1ccc(N(CC(C)C)S(=O)(=O)c2ccc(C(=O)O)cc2)c(C)c1 [Product P179, 4-(N-(2,4-dimethylphenyl)-N-isobutylsulfamoyl)benzoic acid]		> 100
CCCCc1ccc(N(CC(C)C)S(=O)(=O)c2ccc(OCc3c(C)noc3C)cc2)c(C)c1 [Product P23]		≤ 1
Cc1ccc(N(CC(C)C)S(=O)(=O)c2ccc(OCc3ncn(C)n3)cc2)c(C)c1 [Product P132]		≤ 1
Cc1ccc(N(CC(C)C)S(=O)(=O)c2ccc(COCc3ccncc3)cc2)c(C)c1 [Product P128]		≤ 1
Cc1ccc(C)c(N(CC(C)C)S(=O)(=O)c2ccc(OCc3c(C)noc3C)cc2)c1 [Product P37]		≤ 1
Cc1ccc(N(CC(C)C)S(=O)(=O)c2ccc(OCc3ccncc3)cc2)c(C)c1 [Product P123]		≤ 1
Cc1cc(C(C)(C)O)ccc1N(CC(C)C)S(=O)(=O)c1ccc(OCc2c(C)noc2C)cc1 [Product P155, 4-((3,5-dimethylisoxazol-4-yl)methoxy)-N-(4-(2-hydroxypropan-2-yl)-2-methylphenyl)-N-isobutylbenzenesulfonamide]		≤ 1
Cc1ccc(N(CC(C)C)S(=O)(=O)c2ccc(OCc3ncnn3C)cc2)c(C)c1 [Product P147]		≤ 1
Cc1ccc(N(CC(C)C)S(=O)(=O)c2ccc(OCc3ccncn3)cc2)c(C)c1 [Product P143]		≤ 1
Cc1cc(C)cc(N(CC(C)C)S(=O)(=O)c2ccc(OCc3c(C)noc3C)cc2)c1 [Product P118]		≤ 1

Further lines, with some results ahead:

IC50 [2] [µM]	Structure (SMILES)	IC50 [1] [µM]
≤ 0.0158	Cc1noc(C)c1COc1ccc(S(=O)(=O)N(CC(C)C)c2ccc(C(C)C)cc2)cc1 [Product P28]	≤ 1
≤ 0.0158	Cc1ccc(N(CC(C)C)S(=O)(=O)c2ccc(OCCc3c(C)noc3C)cc2)c(C)c1 [Product P142]	
≤ 0.0158	CCCc1ccc(N(CC(C)C)S(=O)(=O)c2ccc(OCc3c(C)noc3C)cc2)cc1 [Product P31]	≤ 1
≤ 0.0158	Cc1ccc(N(CC(C)C)S(=O)(=O)c2ccc(CCc3ccncc3)cc2)c(C)c1 [Product P140]	≤ 1
≤ 0.0158	CCc1ccc(N(CC(C)C)S(=O)(=O)c2ccc(OCc3c(C)noc3C)cc2)cc1 [Product P160, 4-((3,5-dimethylisoxazol-4-yl)methoxy)-N-(4-ethylphenyl)-N-isobutylbenzenesulfonamide]	≤ 1
≤ 0.0158	Cc1ccc(C(F)(F)F)cc1N(CC(C)C)S(=O)(=O)c1ccc(OCc2c(C)noc2C)cc1 [Product P33]	≤ 1
≤ 0.0158	Cc1ccc(N(CC(C)C)S(=O)(=O)c2ccc(OCC(O)c3ccncc3)cc2)c(C)c1 (centres unmarked) [Product P150, N-(2,4-dimethylphenyl)-4-(2-hydroxy-2-(pyridin-4-yl)ethoxy)-N-isobutylbenzenesulfonamide]	
≤ 0.0158	Cc1ccc(N(CC(C)C)S(=O)(=O)c2ccc(OCCc3ccncc3)cc2)c(C)c1 [Product P141]	
≤ 0.0158	Cc1noc(C)c1COc1ccc(S(=O)(=O)N(CC(C)C)c2ccc(Cl)c(Cl)c2)cc1 [Product P114]	
≤ 0.0158	Cc1ccc(N(CC(C)C)S(=O)(=O)c2ccc(OCc3c(C)noc3C)cc2)c(C)c1 [Product P24]	≤ 1
≤ 0.0158	Cc1ccc(F)cc1N(CC(C)C)S(=O)(=O)c1ccc(OCc2ccncc2)cc1 [Product P104]	
≤ 0.0158	Cc1ccc(N(CC(C)C)S(=O)(=O)c2ccc(OCc3ccncc3)cc2)c(C)c1 [Product P98]	
≤ 0.0158	Cc1noc(C)c1COc1ccc(S(=O)(=O)N(CC(C)C)c2ccc(Cl)cc2)cc1 [Product P30]	≤ 1
